Measurements: patent US20260026504A1, “COMPOUND […] STRUCTURE, APPLICATION, AND INSECTICIDE” (Anhui Shengfeng Biochemical Co., Ltd, priority 2022, published 2026)
Like-named read-outs stand apart in the source and are kept apart here.

What was measured:
[1] = test system: diamondback moth (Plutella xylostella) second instar larvae; assay: Toxicity to diamondback moth larvae by the leaf-dipping method; format: in vivo; settings: for mortality at 0.25 ppm / mortality at 1 ppm: Plutella xylostella, in Brassica oleracea, foliar
Protocol: Determining the toxicity activity of part of compounds on diamondback moth (Plutella xylostella) instar larvae by the leafdipping method.
The test agents of the compounds in Table 2 were weighed out accurately with an electronic analytical balance, and the original drug was dissolved in a 10000 ppm solution with dimethyl sulfoxide as the solvent and then diluted with 0.1% of Triton solution to 1 ppm and 0.25 ppm solutions. Taking the cabbage not contacted with the liquid medicine, and cutting the leaves into 6 cm-diameter circular leaves. Soaking the leaves in the prepared liquid medicine for 15 seconds, taking out and drying, and placing the leaves into 6 cm culture dishes, wherein 1 cabbage leaf is placed in each culture dish. The same standard second instar larvae were placed in petri dishes with 10 heads per dish and 4 replicates per concentration for a total of 40 heads. After inoculation, the culture dish is placed in a constant-temperature culture chamber with the temperature of 25±1° C. and the illumination period of 16 (D) to 8 (L) h, and the number of dead and live larvae is investigated after 48 h and 72 h. A blank and a control of compound K1 and compound K2 were also provided.
The mortality is calculated according to the following formula 1, then the corrected mortality is calculated according to the formula 2, and finally the classification is carried out according to the corrected mortality value and the rating standard shown in the table 2, and the specific results are shown in the tables 3 and 4.
(§1) mortality %=(number of dead insects/total number of insects)×100% Equation 1;
(§2) corrected mortality %=[(treatment-control mortality)/(1-control mortality)]×100% Equation 2.

[2] = test system: rice leaf rollers (Cnaphalocrocis medinalis) fourth instar larvae; assay: Toxicity to rice leaf roller fourth instar larvae by the leaf-dipping method; format: in vivo; settings: for mortality at 5 ppm: Cnaphalocrocis medinalis, foliar, corrected mortality grade, 48 h, rice leaf dip
Protocol: The toxicity activity of part of the compounds on the fourth instar larvae of the rice leaf rollers (Cnaphalocrocis medinalis) is determined by the leafdipping method.
The test agents of the compounds in Table 2 were weighed out accurately with an electronic analytical balance, and the original drug was dissolved completely in dimethylsulfoxide to 10000 ppm solution and then diluted with 0.1% aqueous solution of Triton to 5 ppm solution. And (4) selecting rice plants which are planted in a laboratory and are not contacted with the liquid medicine, and cutting leaves of the rice plants to about 8 cm. Soaking the leaves in the prepared liquid medicine for 15 seconds, taking out and drying, wrapping the roots with absorbent cotton, and putting the wrapped roots into 9 cm culture dishes, wherein 3-5 rice leaves are placed in each culture dish. The water bamboo sections used as the feed for larvae are peeled off gently, and the four-instar larvae of the same standard are placed in culture dishes with 10 heads per dish and 4 repetitions per concentration for a total of 40 heads. After the inoculation, the culture dish is placed in a constant temperature culture room with the temperature of 26±1° C. and the illumination period of 16 (D): 8 (L) h, and the number of dead and live larvae is investigated after 48 h. A blank and a control of compound K1 and compound K2 were also provided.
The mortality was calculated according to the following formula 1, then the corrected mortality was calculated according to the following formula 2, and finally the rating criteria shown in table 2 were combined for ranking according to the corrected mortality value, and the specific results are shown in table 5.
as §1, §2

[3] = 48 h, corrected mortality grade, cabbage leaf dip
[4] = 48 h, corrected mortality grade, 1 ppm, 48 h, cabbage leaf dip, read-out: mortality (1 ppm) 48 h
[5] = 72 h, corrected mortality grade, 1 ppm, 72 h, cabbage leaf dip, read-out: mortality (1 ppm) 72 h

Question: With `Cc1cc(C2=NOC(c3cc(Cl)c(F)c(Cl)c3)(C(F)(F)F)C2)ccc1C(=O)Nc1cnn(C(C)C)c1` (stereo not drawn) [Compound 127] as the compound, how does the mortality at 0.25 ppm [1, 3] read?
Answer: Its mortality at 0.25 ppm is 100%.

Question: What about the mortality at 1 ppm [1, 4] of the same compound?
Answer: The mortality at 1 ppm was 100%.

Question: What about the mortality at 1 ppm [1, 5] of the same compound?
Answer: The mortality at 1 ppm was 100%.

Question: What about the “lethality to Plutella xylostella” value ([1]; concentration of 0.25 ppm) of the same compound?
Answer: Its value is 100%.

Question: And the mortality at 5 ppm [2]?
Answer: Its mortality at 5 ppm is 100%.

Question: What about the “lethality to Cnaphalocrocis medinalis” value ([2]; concentration of 5 ppm) of the same compound?
Answer: The value was 100%.

Question: Which mortality at 1 ppm [1, 4] does the source give for `Cc1cc(C2=NOC(c3cc(Cl)c(F)c(Cl)c3)(C(F)(F)F)C2)ccc1C(=O)Nc1cnn(C(=O)N(C)C)c1` (stereo not drawn) [Compound 149] here?
Answer: Its mortality at 1 ppm is 100%.

Question: What about the mortality at 1 ppm [1, 5] of the same compound?
Answer: Its mortality at 1 ppm is 100%.

Question: `CCN(CC)C(=O)n1cc(NC(=O)c2ccc(C3=NOC(c4cc(Cl)c(F)c(Cl)c4)(C(F)(F)F)C3)cc2C)cn1` (stereo not drawn) [Compound 150] was tested. Which mortality at 1 ppm [1, 4] did it give?
Answer: Its mortality at 1 ppm is 80 to 90%.

Question: And the mortality at 1 ppm [1, 5]?
Answer: Its mortality at 1 ppm is 100%.

Question: For `Cc1cc(C2=NOC(c3cc(Cl)c(F)c(Cl)c3)(C(F)(F)F)C2)ccc1C(=O)Nc1cnn(S(C)(=O)=O)c1` (stereo not drawn) [Compound 151], which mortality at 1 ppm [1, 5] is on record?
Answer: Its mortality at 1 ppm is 70 to 80%.

Question: `CCCS(=O)(=O)n1cc(NC(=O)c2ccc(C3=NOC(c4cc(Cl)c(F)c(Cl)c4)(C(F)(F)F)C3)cc2C)cn1` (stereo not drawn) [Compound 153] was tested. Which mortality at 1 ppm [1, 4] did it give?
Answer: The mortality at 1 ppm was 70 to 80%.

Question: And the mortality at 1 ppm [1, 5]?
Answer: The mortality at 1 ppm was 90 to 100%.

Question: Which results are given for `Cc1cc(C2=NOC(c3cc(Cl)c(F)c(Cl)c3)(C(F)(F)F)C2)ccc1C(=O)Nc1cnn(S(=O)(=O)C(C)C)c1` (stereo not drawn) [Compound 154]?
Answer: mortality at 1 ppm [1, 4]: 80 to 90%; mortality at 1 ppm [1, 5]: 100%

Question: For `Cc1cc(C2=NOC(c3cc(Cl)c(F)c(Cl)c3)(C(F)(F)F)C2)ccc1C(=O)Nc1cnn(S(=O)(=O)c2ccccc2)c1` (stereo not drawn) [Compound 155], which mortality at 1 ppm [1, 5] is on record?
Answer: Its mortality at 1 ppm is 50 to 70%.

Question: `Cc1cc(C2=NOC(c3cc(Cl)c(F)c(Cl)c3)(C(F)(F)F)C2)ccc1C(=O)Nc1cnn(S(=O)(=O)C2CCCCC2)c1` (stereo not drawn) [Compound 157] was tested. Which mortality at 1 ppm [1, 4] did it give?
Answer: Its mortality at 1 ppm is 90 to 100%.

Question: What about the mortality at 1 ppm [1, 5] of the same compound?
Answer: Its mortality at 1 ppm is 100%.

Question: Which mortality at 1 ppm [1, 4] does the source give for `Cc1cc(C2=NOC(c3cc(Cl)c(F)c(Cl)c3)(C(F)(F)F)C2)ccc1C(=O)Nc1c(C)n[nH]c1C` (stereo not drawn) [Compound 158] here?
Answer: The mortality at 1 ppm was 50 to 70%.

Question: What about the mortality at 1 ppm [1, 5] of the same compound?
Answer: Its mortality at 1 ppm is 90 to 100%.

Question: `Cc1cc(C2=NOC(c3cc(Cl)c(F)c(Cl)c3)(C(F)(F)F)C2)ccc1C(=O)Nc1c(C)nn(C)c1C` (stereo not drawn) [Compound 159] was tested. Which “mortality (1 ppm) 72 h” value ([1]; corrected mortality grade, 1 ppm, 72 h, cabbage leaf dip) did it give?
Answer: Its value is “B (90% to less than 100%)”.

Question: `Cc1cc(C2=NOC(c3cc(Cl)c(F)c(Cl)c3)(C(F)(F)F)C2)ccc1C(=O)Nc1c(C)nn(C)c1C` (stereo not drawn) [Compound 160] was tested. Which mortality at 1 ppm [1, 4] did it give?
Answer: The mortality at 1 ppm was 50 to 70%.

Question: What about the mortality at 1 ppm [1, 5] of the same compound?
Answer: Its mortality at 1 ppm is 70 to 80%.

Question: `CCCn1nc(C)c(NC(=O)c2ccc(C3=NOC(c4cc(Cl)c(F)c(Cl)c4)(C(F)(F)F)C3)cc2C)c1C` (stereo not drawn) [Compound 161] was tested. Which mortality at 1 ppm [1, 5] did it give?
Answer: Its mortality at 1 ppm is 90 to 100%.

Question: With `Cc1cc(C2=NOC(c3cc(Cl)c(F)c(Cl)c3)(C(F)(F)F)C2)ccc1C(=O)Nc1c(C)nn(C(C)C)c1C` (stereo not drawn) [Compound 162] as the compound, how does the mortality at 1 ppm [1, 4] read?
Answer: The mortality at 1 ppm was 50 to 70%.

Question: What about the mortality at 1 ppm [1, 5] of the same compound?
Answer: Its mortality at 1 ppm is 100%.

Question: Which mortality at 1 ppm [1, 5] does the source give for `CC(=O)n1nc(C)c(NC(=O)c2ccc(C3=NOC(c4cc(Cl)c(F)c(Cl)c4)(C(F)(F)F)C3)cc2C)c1C` (stereo not drawn) [Compound 168] here?
Answer: Its mortality at 1 ppm is 90 to 100%.

Question: How did the mortality at 1 ppm [1, 5] turn out when `CCC(=O)n1nc(C)c(NC(=O)c2ccc(C3=NOC(c4cc(Cl)c(F)c(Cl)c4)(C(F)(F)F)C3)cc2C)c1C` (stereo not drawn) [Compound 169] was run?
Answer: Its mortality at 1 ppm is 80 to 90%.

Question: Which mortality at 1 ppm [1, 5] does the source give for `CCCC(=O)n1nc(C)c(NC(=O)c2ccc(C3=NOC(c4cc(Cl)c(F)c(Cl)c4)(C(F)(F)F)C3)cc2C)c1C` (stereo not drawn) [Compound 170] here?
Answer: The mortality at 1 ppm was 80 to 90%.

Question: How did the mortality at 1 ppm [1, 5] turn out when `Cc1cc(C2=NOC(c3cc(Cl)c(F)c(Cl)c3)(C(F)(F)F)C2)ccc1C(=O)Nc1c(C)nn(C(=O)C(C)C)c1C` (stereo not drawn) [Compound 171] was run?
Answer: The mortality at 1 ppm was 80 to 90%.

Question: Which mortality at 1 ppm [1, 5] does the source give for `Cc1cc(C2=NOC(c3cc(Cl)c(F)c(Cl)c3)(C(F)(F)F)C2)ccc1C(=O)Nc1c(C)nn(C(=O)C2CCC2)c1C` (stereo not drawn) [Compound 174] here?
Answer: The mortality at 1 ppm was 70 to 80%.

Question: How did the mortality at 1 ppm [1, 5] turn out when `Cc1cc(C2=NOC(c3cc(Cl)c(F)c(Cl)c3)(C(F)(F)F)C2)ccc1C(=O)Nc1c(C)nn(C(=O)N(C)C)c1C` (stereo not drawn) [Compound 177] was run?
Answer: Its mortality at 1 ppm is 80 to 90%.

Question: Which results are given for `Cc1cc(C2=NOC(c3cc(Cl)cc(Cl)c3)(C(F)(F)F)C2)ccc1C(=O)Nc1ccn(C)n1` (stereo not drawn) [Compound K1, reference compound]?
Answer: mortality at 0.25 ppm [1, 3]: < 50%; mortality at 1 ppm [1, 4]: < 50%; mortality at 1 ppm [1, 5]: < 50%; mortality at 5 ppm [2]: < 50%
